The results in this text go back to US20120040955A1 (priority 2009, published 2012).

A value given as a limit tells only on which side of the number the result lay.

The target of assay [1] is T1, JAK2 (Homo sapiens, UniProt O60674).
T1 construct: endogenous in cells; host or cells: Mixed Molt4 / Ramos cell lysate (1:2)
In words: kinobeads assay (competition with affinity matrix in mixed Molt4/Ramos cell lysate, dot blot detection), JAK2. The format is binding. To be noted: activity level. As to the method: (§1) The compounds of the present invention as described in the previous examples were tested in a kinobeads assay as described for ZAP-70 (WO-A 2007/137867). Briefly, test compounds (at various concentrations) and the affinity matrix with the immobilized aminopyrido-pyrimidine ligand 24 were added to cell lysate aliquots and allowed to bind to the proteins in the lysate sample. After the incubation time the beads with captured proteins were separated from the lysate. Bound proteins were then eluted and the presence of, JAK2 and JAK3 was detected and quantified using specific antibodies in a dot blot procedure and the Odyssey infrared detection system. Dose response curves for individual kinases were generated and IC50 values calculated. Kinobeads assays for ZAP-70 (WO-A 2007/137867) and for kinase selectivity profiling (WO-A 2006/134056) have been previously described.
(§2) 5× DP buffer: 250 mM Tris-HCl pH 7.4, 25% Glycerol, 7.5 mM MgCl2, 750 mM NaCl, 5 mM Na3VO4; filter the 5× DP buffer through a 0.22 μm filter and store in aliquots at −80° C. The 5× DP buffer is diluted with H2O to 1× DP buffer containing 1 mM DTT and 25 mM NaF.
(§3) Stock solutions of test compounds were prepared in DMSO. In a 96 well plate 30 μl solution of diluted test compounds at 5 mM in DMSO were prepared. Starting with this solution a 1:3 dilution series (9 steps) was prepared. For control experiments (no test compound) a buffer containing 2% DMSO was used.
(§4) Molt4 cells (ATCC catalogue number CRL-1582) and Ramos cells (ATCC catalogue number CRL-1596) were grown in 1 litre Spinner flasks (Integra Biosciences, #182101) in suspension in RPMI 1640 medium (Invitrogen, #21875-034) supplemented with 10% Fetal Bovine Serum (Invitrogen) at a density between 0.15×10^6 and 1.2×10^6 cells/ml. Cells were harvested by centrifugation, washed once with 1× PBS buffer (Invitrogen, #14190-094) and cell pellets were frozen in liquid nitrogen and subsequently stored at −80° C. Cells were homogenized in a Potter S homogenizer in lysis buffer: 50 mM Tris-HCl, 0.8% NP40, 5% glycerol, 150 mM NaCl, 1.5 mM MgCl2, 25 mM NaF, 1 mM sodium vanadate, 1 mM DTT, pH 7.5. One complete EDTA-free tablet (protease inhibitor cocktail, Roche Diagnostics, 1873580) per 25 ml buffer was added. The material was dounced 10 times using a mechanized POTTER S, transferred to 50 ml falcon tubes, incubated for 30 minutes on ice and spun down for 10 min at 20,000 g at 4° C. (10,000 rpm in Sorvall SLA600, precooled). The supernatant was transferred to an ultracentrifuge (UZ)-polycarbonate tube (Beckmann, 355654) and spun for 1 hour at 100.000 g at 4° C. (33.500 rpm in Ti50.2, precooled). The supernatant was transferred again to a fresh 50 ml falcon tube, the protein concentration was determined by a Bradford assay (BioRad) and samples containing 50 mg of protein per aliquot were prepared. The samples were immediately used for experiments or frozen in liquid nitrogen and stored frozen at −80° C.
(§5) Cell lysate (approximately 50 mg protein per plate) was thawed in a water bath at room temperature and then kept on ice. To the thawed cell lysate 1× DP 0.8% NP40 buffer containing protease inhibitors (1 tablet for 25 ml buffer; EDTA-free protease inhibitor cocktail; Roche Diagnostics 1873580) was added in order to reach a final protein concentration of 5 mg/ml total protein. The diluted cell lysate was stored on ice. Mixed Molt4/Ramos lysate was prepared by combining one volume of Molt4 lysate and two volumes of Ramos lysate (ratio 1:2).
(§6) To a 96 well filter plate (Multiscreen HTS, BV Filter Plates, Millipore #MSBVN1250) were added per well: 100 μl affinity matrix (3% beads slurry), 3 μl of compound solution, and 50 μl of diluted lysate. Plates were sealed and incubated for three hours in a cold room on a plate shaker (Heidolph tiramax 1000) at 750 rpm. Afterwards the plate was washed twice with 230 μl washing buffer (1× DP 0.4% NP40). […]

Assay [2] addresses T2, JAK3 (Homo sapiens, UniProt P52333).
T2 construct: endogenous in cells; host or cells: Mixed Molt4 / Ramos cell lysate (1:2)
T2 sequence (P52333 1-1124): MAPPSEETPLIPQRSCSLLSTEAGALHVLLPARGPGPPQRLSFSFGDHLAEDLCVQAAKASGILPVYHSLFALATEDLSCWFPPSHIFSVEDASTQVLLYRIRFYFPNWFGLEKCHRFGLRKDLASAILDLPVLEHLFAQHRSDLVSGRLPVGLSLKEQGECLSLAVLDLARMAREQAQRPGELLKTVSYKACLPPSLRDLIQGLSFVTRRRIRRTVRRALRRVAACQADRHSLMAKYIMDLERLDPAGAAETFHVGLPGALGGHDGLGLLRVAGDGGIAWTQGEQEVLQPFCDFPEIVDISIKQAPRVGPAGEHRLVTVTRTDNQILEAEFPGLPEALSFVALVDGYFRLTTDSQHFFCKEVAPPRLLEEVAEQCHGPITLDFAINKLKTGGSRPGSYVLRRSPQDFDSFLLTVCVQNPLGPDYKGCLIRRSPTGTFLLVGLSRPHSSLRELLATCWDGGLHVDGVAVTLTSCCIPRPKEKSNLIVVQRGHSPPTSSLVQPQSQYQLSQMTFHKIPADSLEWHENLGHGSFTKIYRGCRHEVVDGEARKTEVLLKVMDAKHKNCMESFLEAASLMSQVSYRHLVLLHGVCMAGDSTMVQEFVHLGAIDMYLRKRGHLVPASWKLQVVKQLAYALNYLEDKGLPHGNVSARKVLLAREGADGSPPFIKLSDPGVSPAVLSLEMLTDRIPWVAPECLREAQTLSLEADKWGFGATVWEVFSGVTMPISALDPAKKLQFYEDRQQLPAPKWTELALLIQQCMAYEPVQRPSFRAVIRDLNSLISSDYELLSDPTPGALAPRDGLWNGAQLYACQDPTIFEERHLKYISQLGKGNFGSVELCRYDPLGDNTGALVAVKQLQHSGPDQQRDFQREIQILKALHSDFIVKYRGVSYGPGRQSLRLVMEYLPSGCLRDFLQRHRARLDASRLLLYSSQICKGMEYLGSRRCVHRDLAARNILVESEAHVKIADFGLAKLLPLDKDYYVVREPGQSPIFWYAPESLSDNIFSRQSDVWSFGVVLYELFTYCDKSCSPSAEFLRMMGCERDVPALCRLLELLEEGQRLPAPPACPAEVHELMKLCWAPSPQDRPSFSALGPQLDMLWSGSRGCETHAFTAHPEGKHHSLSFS
In words: kinobeads assay (competition with affinity matrix in mixed Molt4/Ramos cell lysate, dot blot detection), JAK3. Format: binding. Conditions: activity level. As to the method: as §1, §2, §3, §4, §5, §6

T1 sequence (O60674 whole entry): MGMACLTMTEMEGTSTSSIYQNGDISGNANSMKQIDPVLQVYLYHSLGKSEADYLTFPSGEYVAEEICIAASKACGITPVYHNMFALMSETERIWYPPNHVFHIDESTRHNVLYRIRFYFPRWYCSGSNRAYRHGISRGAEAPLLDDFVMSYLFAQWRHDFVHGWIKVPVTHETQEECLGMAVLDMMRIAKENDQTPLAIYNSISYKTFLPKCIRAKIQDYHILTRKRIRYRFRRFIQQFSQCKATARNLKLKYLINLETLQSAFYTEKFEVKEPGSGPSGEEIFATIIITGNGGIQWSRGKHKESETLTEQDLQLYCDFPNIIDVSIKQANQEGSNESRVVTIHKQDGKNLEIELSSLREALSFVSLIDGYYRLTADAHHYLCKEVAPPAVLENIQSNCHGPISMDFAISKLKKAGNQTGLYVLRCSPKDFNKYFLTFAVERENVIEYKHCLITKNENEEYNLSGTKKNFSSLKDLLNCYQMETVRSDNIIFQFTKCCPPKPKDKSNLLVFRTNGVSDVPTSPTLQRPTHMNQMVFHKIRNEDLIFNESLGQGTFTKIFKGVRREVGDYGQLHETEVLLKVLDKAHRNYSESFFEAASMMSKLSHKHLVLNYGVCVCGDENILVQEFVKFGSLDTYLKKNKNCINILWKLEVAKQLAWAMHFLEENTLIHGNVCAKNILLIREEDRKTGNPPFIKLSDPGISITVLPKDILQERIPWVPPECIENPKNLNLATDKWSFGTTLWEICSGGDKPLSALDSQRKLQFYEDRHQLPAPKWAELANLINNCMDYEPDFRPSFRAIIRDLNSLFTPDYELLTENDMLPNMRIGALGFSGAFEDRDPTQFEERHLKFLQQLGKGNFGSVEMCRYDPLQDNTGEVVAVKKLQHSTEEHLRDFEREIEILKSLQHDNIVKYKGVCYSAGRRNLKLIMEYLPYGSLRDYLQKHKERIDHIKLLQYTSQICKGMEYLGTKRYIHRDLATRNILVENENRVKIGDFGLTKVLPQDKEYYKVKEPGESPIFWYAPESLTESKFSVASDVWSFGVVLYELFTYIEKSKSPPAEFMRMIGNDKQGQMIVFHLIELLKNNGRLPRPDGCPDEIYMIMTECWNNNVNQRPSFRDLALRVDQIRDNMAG

Consider `CS(=O)(=O)Nc1ccccc1Nc1nc(Nc2cc(-n3cnnn3)ccc2F)ncc1F` [Example 1, N-(2-(5-fluoro-2-(2-fluoro-5-(1H-tetrazol-1-yl)phenylamino)pyrimidin-4-ylamino)phenyl)methanesulfonamide], for which the IC50 (commonly the concentration that gives 50% inhibition) in assay [1] was 1000 to 10000 nM; in assay [2] it was less than 100 nM.
Take `CS(=O)(=O)Nc1ccccc1Nc1nc(Nc2ccc(N3CCOCC3)cc2F)ncc1F` [Example 2, N-(2-(5-fluoro-2-(2-fluoro-4-morpholinophenylamino)pyrimidin-4-ylamino)phenyl)methanesulfonamide]: the IC50 is greater than 10000 nM in assay [1] and 100 to 1000 nM in assay [2].
For the compound `CS(=O)(=O)Nc1c(F)cccc1Nc1nc(Nc2cc(-n3cnnn3)ccc2F)ncc1F` [Example 3, N-(2-fluoro-6-(5-fluoro-2-(2-fluoro-5-(1H-tetrazol-1-yl)phenylamino)pyrimidin-4-ylamino)phenyl)methanesulfonamide], the IC50 was greater than 10000 nM in assay [1] and less than 100 nM in assay [2].
Turning to `Cc1cccc(Nc2nc(Nc3cc(-n4cnnn4)ccc3F)ncc2F)c1NS(C)(=O)=O` [Example 4, N-(2-(5-fluoro-2-(2-fluoro-5-(1H-tetrazol-1-yl)phenylamino)pyrimidin-4-ylamino)-6-methylphenyl)methanesulfonamide], the figures for the IC50 in assay [1] and in assay [2] were greater than 10000 nM and less than 100 nM, respectively.
The matching figures for `COc1ccc(Nc2nc(Nc3cc(-n4cnnn4)ccc3F)ncc2F)c(NS(C)(=O)=O)c1` [Example 5, N-(2-(5-fluoro-2-(2-fluoro-5-(1H-tetrazol-1-yl)phenylamino)pyrimidin-4-ylamino)-5-methoxyphenyl)methanesulfonamide]: 1000 to 10000 nM and less than 100 nM.
In the case of `CS(=O)(=O)Nc1ccccc1Nc1nc(Nc2cc(-n3cnnn3)ccc2F)ncc1Cl` [Example 7, N-(2-(5-chloro-2-(2-fluoro-5-(1H-tetrazol-1-yl)phenylamino)pyrimidin-4-ylamino)phenyl)methanesulfonamide], the IC50 in assay [1] was 100 to 1000 nM; in assay [2], less than 100 nM.
Consider `Cc1cccc(Nc2nc(Nc3cc(-n4cnnn4)ccc3F)ncc2Cl)c1NS(C)(=O)=O` [Example 9, N-(2-(5-chloro-2-(2-fluoro-5-(1H-tetrazol-1-yl)phenylamino)pyrimidin-4-ylamino)-6-methylphenyl)methanesulfonamide], for which the IC50 was 100 to 1000 nM in assay [1] and less than 100 nM in assay [2].
The corresponding values for `COc1ccc(Nc2nc(Nc3cc(-n4cnnn4)ccc3F)ncc2Cl)c(NS(C)(=O)=O)c1` [Example 10, N-(2-(5-chloro-2-(2-fluoro-5-(1H-tetrazol-1-yl)phenylamino)pyrimidin-4-ylamino)-5-methoxyphenyl)methanesulfonamide] are 100 to 1000 nM and less than 100 nM.
Take `CS(=O)(=O)Nc1ccccc1Nc1nc(Nc2cc(-n3cnnn3)ccc2F)ncc1Br` [Example 12, N-(2-(5-bromo-2-(2-fluoro-5-(1H-tetrazol-1-yl)phenylamino)pyrimidin-4-ylamino)phenyl)methanesulfonamide]: the results for the half-maximal inhibitory concentration (IC50) in assay [1] and in assay [2] were 100 to 1000 nM and less than 100 nM, respectively.
The matching figures for `CN(c1ccccc1Nc1nc(Nc2cc(-n3cnnn3)ccc2F)ncc1F)S(C)(=O)=O` [Example 13, N-(2-(5-fluoro-2-(2-fluoro-5-(1H-tetrazol-1-yl)phenylamino)pyrimidin-4-ylamino)phenyl)-N-methylmethanesulfonamide]: 100 to 1000 nM and less than 100 nM.
The matching figures for `CCNC(=O)c1ccc(F)c(Nc2ncc(Cl)c(Nc3ccccc3NS(C)(=O)=O)n2)c1` [Example 14]: 100 to 1000 nM and less than 100 nM.
Take `CS(=O)(=O)Nc1ccccc1Nc1nc(Nc2cc(C(=O)NC3CC3)ccc2F)ncc1Cl` [Example 15]: the IC50 in assay [2] was less than 100 nM.
The compound `CC(C)NC(=O)c1ccc(F)c(Nc2ncc(Cl)c(Nc3ccccc3NS(C)(=O)=O)n2)c1` [Example 16] gave an IC50 in assay [2] of less than 100 nM.
With `CS(=O)(=O)Nc1ccccc1Nc1nc(Nc2cc(C(=O)N3CCCCC3)ccc2F)ncc1Cl` [Example 17, N-(2-(5-chloro-2-(2-fluoro-5-(piperidine-1-carbonyl)phenylamino)pyrimidin-4-ylamino)phenyl)methanesulfonamide], the IC50 in assay [1] is 1000 to 10000 nM; in assay [2], less than 100 nM.
The matching figures for `CS(=O)(=O)Nc1ccccc1Nc1nc(Nc2cc(C(N)=O)ccc2F)ncc1Cl` [Example 18, 3-(5-chloro-4-(2-(methylsulfonamido)phenylamino)pyrimidin-2-ylamino)-4-fluorobenzamide]: greater than 10000 nM and less than 100 nM.
For `CCN(CC)C(=O)c1ccc(F)c(Nc2ncc(Cl)c(Nc3ccccc3NS(C)(=O)=O)n2)c1` [Example 19, 3-(5-chloro-4-(2-(methylsulfonamido)phenylamino)pyrimidin-2-ylamino)-N,N-diethyl-4-fluorobenzamide], the IC50 in assay [2] was in the range of 100 to 1000 nM.
Same read-out and setting: for `CS(=O)(=O)Nc1ccccc1Nc1nc(Nc2cc(C(=O)N3CCC3)ccc2F)ncc1Cl` [Example 20, N-(2-(2-(5-(azetidine-1-carbonyl-2-fluorophenylamino))-5-chloropyrimidin-4-ylamino)phenyl)methanesulfonamide] the value was less than 100 nM.
In the case of `CNC(=O)c1ccc(F)c(Nc2ncc(Cl)c(Nc3ccccc3NS(C)(=O)=O)n2)c1` [Example 21, 3-(5-chloro-4-(2-(methylsulfonamido)phenylamino)pyrimidin-2-ylamino)-4-fluoro-N-methybenzamide], the IC50 is 1000 to 10000 nM in assay [1] and less than 100 nM in assay [2].
